Reference: patent US20130172384A1, “FATTY ACID SYNTHASE INHIBITORS” (GlaxoSmithKline Intellectual Property Development Limited, priority 2010, published 2013)

Target: FAS (Homo sapiens, UniProt P49327)
Assay: FAS assay (Assay #1 residual NADPH detection or Assay #2 CoA detection with CPM dye)
Format: biochemical
Conditions: inhibition of FAS; measured by one of two assays; one experiment or average of multiple experiments
Experimental: FAS activity was measured through one of the two following assays.
Inhibition of FAS activity can be measured based on the detection of residual NADPH substrate after the FAS assay is quenched. This assay is run as a 10 μL endpoint assay in 384-well format, where the reaction contains 20 μM malonyl-CoA, 2 μM acetyl-CoA, 30 μM NADPH and 40 nM FAS in 50 mM sodium phosphate, pH 7.0. The assay is run by sequentially dispensing 5 μl of a malonyl-CoA solution, then enzyme solution (containing the acetyl-CoA, and NADPH) into a black, low volume assay plate (Greiner 784076) pre-dispensed with 100 nL compound solutions in DMSO. The reaction is incubated at ambient temperature for 60 minutes, then quenched with 5 μL of a developing solution composed of 90 μM resazurin, 0.3 IU/ml diaphorase in 50 mM sodium phosphate, pH 7.0. The developed reaction is read on a Molecular Devices Analyst or Acquest (or equivalent) plate reader using a 530 nm excitation wavelength filter, a 580 nm emission filter, and 561 nm dichroic filter. The test compounds are prepared in neat DMSO at a concentration of 10 mM. For inhibition curves, compounds are diluted using a three fold serial dilution and tested at 11 concentrations (e.g. 25 μM-0.42 nM). Curves are analysed using ActivityBase and XLfit, and results are expressed as pIC50 values.
Inhibition of FAS can also be quantified based on the detection of the CoA products with a thio-reactive coumarin dye. This assay is run as a 10 μL endpoint assay in 384-well format, where the reaction contains 20 μM malonyl-CoA, 20 μM acetyl-CoA, 40 μM NADPH and 2 nM FAS in 50 mM sodium phosphate, pH 7.0, and 0.04% Tween-20. The assay is run by adding 5 μL enzyme solution to a black, low volume assay plate (Greiner 784076) pre-dispensed with 100 nl compound solutions in DMSO. After 30 minutes, 5 μL substrate is added, and the reaction incubated at ambient temperature for an additional 60 minutes. The reaction is then quenched with 10 μL of 6M guanidine-HCl containing 50 μM CPM (7-diethylamino-3-(4′-maleimidylphenyl)-4-methylcoumarin (CPM; thio-reactive dye), and incubated for 30 minutes. The plate is read on an Envision (PerkinElmer) or equivalent plate reader using a 380 nm excitation wavelength filter, and a 486 nm emission filter. Data fitting and compound preparations are done as described above.

Sequence of FAS (P49327 whole entry): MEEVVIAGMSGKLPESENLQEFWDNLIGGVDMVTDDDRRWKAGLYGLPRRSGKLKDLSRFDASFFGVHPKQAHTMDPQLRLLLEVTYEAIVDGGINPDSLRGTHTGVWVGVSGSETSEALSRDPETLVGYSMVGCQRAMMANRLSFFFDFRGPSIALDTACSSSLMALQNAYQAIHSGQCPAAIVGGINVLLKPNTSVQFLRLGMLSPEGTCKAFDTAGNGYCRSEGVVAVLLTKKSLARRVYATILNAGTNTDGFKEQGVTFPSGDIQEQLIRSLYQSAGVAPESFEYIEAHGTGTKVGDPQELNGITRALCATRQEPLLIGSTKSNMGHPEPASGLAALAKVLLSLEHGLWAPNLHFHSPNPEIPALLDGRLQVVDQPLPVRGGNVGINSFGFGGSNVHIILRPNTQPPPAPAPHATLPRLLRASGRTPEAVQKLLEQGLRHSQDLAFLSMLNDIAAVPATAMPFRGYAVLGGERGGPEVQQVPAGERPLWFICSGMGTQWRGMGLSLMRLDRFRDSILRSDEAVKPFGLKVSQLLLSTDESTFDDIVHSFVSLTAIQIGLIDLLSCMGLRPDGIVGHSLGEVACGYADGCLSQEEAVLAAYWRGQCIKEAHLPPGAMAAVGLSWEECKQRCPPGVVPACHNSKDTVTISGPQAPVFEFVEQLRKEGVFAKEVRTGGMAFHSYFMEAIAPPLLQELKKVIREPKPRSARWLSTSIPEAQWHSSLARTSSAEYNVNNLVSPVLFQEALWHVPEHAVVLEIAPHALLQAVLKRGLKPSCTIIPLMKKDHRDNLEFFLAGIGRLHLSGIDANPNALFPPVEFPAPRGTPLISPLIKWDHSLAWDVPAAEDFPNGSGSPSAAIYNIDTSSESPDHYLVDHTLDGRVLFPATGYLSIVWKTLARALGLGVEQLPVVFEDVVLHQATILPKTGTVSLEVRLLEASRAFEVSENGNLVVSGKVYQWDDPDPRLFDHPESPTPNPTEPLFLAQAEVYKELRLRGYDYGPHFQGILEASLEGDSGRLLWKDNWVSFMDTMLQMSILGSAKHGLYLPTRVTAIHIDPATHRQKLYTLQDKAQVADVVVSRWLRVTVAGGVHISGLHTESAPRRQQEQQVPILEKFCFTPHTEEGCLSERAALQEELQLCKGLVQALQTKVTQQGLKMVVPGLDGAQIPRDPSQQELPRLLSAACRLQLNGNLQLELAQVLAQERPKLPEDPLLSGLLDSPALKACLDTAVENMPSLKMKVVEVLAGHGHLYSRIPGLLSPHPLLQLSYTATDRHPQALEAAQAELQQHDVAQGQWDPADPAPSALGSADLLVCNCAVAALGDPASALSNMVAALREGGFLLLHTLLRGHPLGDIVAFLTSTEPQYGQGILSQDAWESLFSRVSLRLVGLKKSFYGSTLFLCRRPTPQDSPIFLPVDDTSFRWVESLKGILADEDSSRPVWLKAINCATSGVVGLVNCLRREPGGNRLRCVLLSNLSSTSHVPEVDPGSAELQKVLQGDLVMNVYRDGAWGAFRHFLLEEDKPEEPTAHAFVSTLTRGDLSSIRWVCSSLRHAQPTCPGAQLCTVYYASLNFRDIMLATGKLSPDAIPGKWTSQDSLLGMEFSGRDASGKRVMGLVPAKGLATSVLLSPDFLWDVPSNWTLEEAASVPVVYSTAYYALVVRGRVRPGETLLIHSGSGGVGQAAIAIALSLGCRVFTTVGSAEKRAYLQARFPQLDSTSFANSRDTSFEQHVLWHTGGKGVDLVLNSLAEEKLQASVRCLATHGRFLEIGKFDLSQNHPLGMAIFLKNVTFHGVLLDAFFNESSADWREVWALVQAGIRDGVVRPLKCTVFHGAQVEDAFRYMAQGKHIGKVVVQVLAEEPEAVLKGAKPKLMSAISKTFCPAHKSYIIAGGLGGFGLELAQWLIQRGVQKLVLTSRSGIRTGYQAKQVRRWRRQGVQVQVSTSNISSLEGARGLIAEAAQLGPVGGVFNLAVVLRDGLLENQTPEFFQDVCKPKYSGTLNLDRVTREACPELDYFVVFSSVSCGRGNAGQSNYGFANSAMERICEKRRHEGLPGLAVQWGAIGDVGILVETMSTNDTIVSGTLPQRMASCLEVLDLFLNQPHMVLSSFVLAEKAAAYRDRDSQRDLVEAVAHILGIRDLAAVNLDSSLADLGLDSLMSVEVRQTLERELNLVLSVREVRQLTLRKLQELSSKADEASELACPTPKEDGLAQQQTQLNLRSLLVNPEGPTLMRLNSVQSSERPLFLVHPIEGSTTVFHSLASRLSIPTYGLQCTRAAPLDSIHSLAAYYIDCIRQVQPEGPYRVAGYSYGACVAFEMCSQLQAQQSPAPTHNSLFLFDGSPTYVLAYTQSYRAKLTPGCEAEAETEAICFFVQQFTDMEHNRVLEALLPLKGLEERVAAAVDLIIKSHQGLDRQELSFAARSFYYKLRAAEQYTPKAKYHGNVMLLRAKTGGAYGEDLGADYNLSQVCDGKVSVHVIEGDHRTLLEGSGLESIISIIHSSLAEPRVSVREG

IC50 | Structure (SMILES)
40 nM | O=C(C1CC1)N1CC[C@@H](Cn2c(-c3ccc(-c4ccc(F)cc4)cc3Cl)n[nH]c2=O)C1 [Example 20, 5-(3-chloro-4′-fluoro-4-biphenylyl)-4-{[(3R)-1-(cyclopropylcarbonyl)-3-pyrrolidinyl]methyl}-2,4-dihydro-3H-1,2,4-triazol-3-one]
100 nM | O=C(C1CC1)N1CC[C@@H](Cn2c(-c3ccc(-c4ccn5ccnc5c4)cc3)n[nH]c2=O)C1 [Example 79, 4-{[(3R)-1-(cyclopropylcarbonyl)-3-pyrrolidinyl]methyl}-5-(4-imidazo[1,2-a]pyridin-7-ylphenyl)-2,4-dihydro-3H-1,2,4-triazol-3-one]
16 nM | O=C(C1CC1)N1CC[C@@H](Cn2c(-c3ccc(-c4ccc(Cl)cc4)cc3F)n[nH]c2=O)C1 [Example 47, 5-(4′-chloro-3-fluoro-4-biphenylyl)-4-{[(3R)-1-(cyclopropylcarbonyl)-3-pyrrolidinyl]methyl}-2,4-dihydro-3H-1,2,4-triazol-3-one]
79 nM | COc1ccc(-c2ccc(-c3nn(C)c(=O)n3C[C@@H]3CCN(C(=O)C4CC4)C3)cc2)c(Cl)c1 [Example 35, 5-[2′-chloro-4′-(methyloxy)-4-biphenylyl]-4-{[(3R)-1-(cyclopropylcarbonyl)-3-pyrrolidinyl]methyl}-2-methyl-2,4-dihydro-3H-1,2,4-triazol-3-one]
79 nM | N#Cc1ccc(-c2ccc(-c3n[nH]c(=O)n3C[C@@H]3CCN(C(=O)C4CC4)C3)cc2)cc1 [Example 66, 4′-(4-{[(3R)-1-(cyclopropylcarbonyl)-3-pyrrolidinyl]methyl}-5-oxo-4,5-dihydro-1H-1,2,4-triazol-3-yl)-4-biphenylcarbonitrile]
398 nM | O=C(C1CC1)N1CC[C@@H](Cn2c(-c3ccc(-c4cn5ccccc5n4)cc3)n[nH]c2=O)C1 [Example 78, 4-{[(3R)-1-(cyclopropylcarbonyl)-3-pyrrolidinyl]methyl}-5-(4-imidazo[1,2-a]pyridin-2-ylphenyl)-2,4-dihydro-3H-1,2,4-triazol-3-one]
50 nM | O=C(C1CC1)N1CC[C@@H](Cn2c(-c3ccc(-c4ccc(Cl)cc4F)cc3)n[nH]c2=O)C1 [Example 105]
2000 nM | O=C(C1CC1)N1CC[C@@H](Cn2c(-c3ccc(-c4ccc(F)nc4)cc3)n[nH]c2=O)C1 [Example 58, 4-{[(3R)-1-(cyclopropylcarbonyl)-3-pyrrolidinyl]methyl}-5-[4-(6-fluoro-3-pyridinyl)phenyl]-2,4-dihydro-3H-1,2,4-triazol-3-one]
263 nM | O=C(C1CC1)N1CC[C@@H](Cn2c(-c3ccc(-c4ccc(F)cc4)cc3)nn(Cc3ccccc3)c2=O)C1 [Example 42, 4-{[(3R)-1-(cyclopropylcarbonyl)-3-pyrrolidinyl]methyl}-5-(4′-fluoro-4-biphenylyl)-2-(phenylmethyl)-2,4-dihydro-3H-1,2,4-triazol-3-one]
4 nM | O=C(C1CC1)N1CC[C@@H](Cn2c(-c3ccc(-c4ccc5cc[nH]c5c4)cc3)n[nH]c2=O)C1 [Example 21, 4-{[(3R)-1-(cyclopropylcarbonyl)-3-pyrrolidinyl]methyl}-5-[4-(1H-indol-6-yl)phenyl]-2,4-dihydro-3H-1,2,4-triazol-3-one]
20 nM | O=C(C1CC1)N1CC[C@@H](Cn2c(-c3ccc(-c4cccc5ncccc45)cc3)n[nH]c2=O)C1 [Example 71, 4-{[(3R)-1-(cyclopropylcarbonyl)-3-pyrrolidinyl]methyl}-5-[4-(5-quinolinyl)phenyl]-2,4-dihydro-3H-1,2,4-triazol-3-one]

The next lines start with the compound.

Structure (SMILES) | IC50
CN(C)C(=O)N1CC[C@@H](Cn2c(-c3ccc(-c4ccc5occc5c4)cc3)n[nH]c2=O)C1 [Example 92, (3R)-3-({3-[4-(1-benzofuran-5-yl)phenyl]-5-oxo-1,5-dihydro-4H-1,2,4-triazol-4-yl}methyl)-N,N-dimethyl-1-pyrrolidinecarboxamide] | 25 nM
Cn1nc(-c2ccc(-c3ccc4occc4c3)c(F)c2)n(C[C@@H]2CCN(C(=O)C3CC3)C2)c1=O [Example 2, 5-[4-(1-benzofuran-5-yl)-3-fluorophenyl]-4-{[(3R)-1-(cyclopropylcarbonyl)-3-pyrrolidinyl]methyl}-2-methyl-2,4-dihydro-3H-1,2,4-triazol-3-one] | 158 nM
CC1(C(=O)N2CC[C@@H](Cn3c(-c4ccc(-c5ccc6occc6c5)cc4)n[nH]c3=O)C2)CC1 [Example 97, 5-[4-(1-benzofuran-5-yl)phenyl]-4-({(3R)-1-[(1-methylcyclopropyl)carbonyl]-3-pyrrolidinyl}methyl)-2,4-dihydro-3H-1,2,4-triazol-3-one] | 4 nM
CC(C)C(=O)N1CC[C@@H](Cn2c(-c3ccc(-c4ccc5occc5c4)cc3)n[nH]c2=O)C1 [Example 91, 5-[4-(1-benzofuran-5-yl)phenyl]-4-{[(3R)-1-(2-methylpropanoyl)-3-pyrrolidinyl]methyl}-2,4-dihydro-3H-1,2,4-triazol-3-one] | 16 nM
O=C(C1CC1)N1CC[C@@H](Cn2c(-c3ccc(-c4ccc5cc[nH]c5c4)c(F)c3)n[nH]c2=O)C1 [Example 4, 4-{[(3R)-1-(cyclopropylcarbonyl)-3-pyrrolidinyl]methyl}-5-[3-fluoro-4-(1H-indol-6-yl)phenyl]-2,4-dihydro-3H-1,2,4-triazol-3-one] | 25 nM
CN(C)S(=O)(=O)Nc1cccc(-c2ccc(-c3n[nH]c(=O)n3C[C@@H]3CCN(C(=O)C4CC4)C3)cc2)c1 [Example 49, N′-[4′-(4-{[(3R)-1-(cyclopropylcarbonyl)-3-pyrrolidinyl]methyl}-5-oxo-4,5-dihydro-1H-1,2,4-triazol-3-yl)-3-biphenylyl]-N,N-dimethylsulfamide] | 40 nM
COc1ccc(-c2ccc(-c3n[nH]c(=S)n3C[C@@H]3CCN(C(=O)C4CC4)C3)cc2)c(Cl)c1 [Example 107, 5-[2′-chloro-4′-(methyloxy)-4-biphenylyl]-4-{[(3R)-1-(cyclopropylcarbonyl)-3-pyrrolidinyl]methyl}-2,4-dihydro-3H-1,2,4-triazole-3-thione] | 72 nM
NC(=O)Nc1cccc(-c2ccc(-c3n[nH]c(=O)n3C[C@@H]3CCN(C(=O)C4CC4)C3)cc2)c1 [Example 103, N-[4′-(4-{[(3R)-1-(cyclopropylcarbonyl)-3-pyrrolidinyl]methyl}-5-oxo-4,5-dihydro-1H-1,2,4-triazol-3-yl)-3-biphenylyl]urea] | 316 nM
